# In patent publication US9932341B2, “Use of pyrazolopyrimidine derivatives for the treatment of PI3K-delta related disorders” (Incyte Corporation, priority 2013, dated 2018):
# Counter-ions that a name gives are not always drawn.
# Biological target: PI3Kδ (p110δ/p85α) (Homo sapiens (Human), UniProt O00329)
# Assay: PI3Kδ Scintillation Proximity Assay (Example A3)
# Type: biochemical
# Conditions: 20 μM ATP, 20 μM PIP2, 4 nM PI3Kδ, read-out: PI3Kδ SPA IC50
# Method: [γ-^33P]ATP (10 mCi/mL) was purchased from PerkinElmer (Waltham, Mass.). […] PI3Kδ (p110δ/p85α) was purchased from Millipore (Bedford, Mass.). ATP, MgCl2, DTT, EDTA, MOPS and CHAPS were purchased from Sigma-Aldrich (St. Louis, Mo.). Wheat Germ Agglutinin (WGA) YSi SPA Scintillation Beads was purchased from GE healthcare life sciences (Piscataway, N.J.).
# The kinase reaction was conducted in polystyrene 384-well matrix white plate from Thermo Fisher Scientific in a final volume of 25 μL. Inhibitors were first diluted serially in DMSO and added to the plate wells before the addition of other reaction components. The final concentration of DMSO in the assay was 0.5%. The PI3K assays were carried out at room temperature in 20 mM MOPS, pH 6.7, 10 mM MgCl2, 5 mM DTT and CHAPS 0.03%. Reactions were initiated by the addition of ATP, the final reaction mixture consisted of 20 μM PIP2, 20 μM ATP, 0.2 μCi [γ-^33P] ATP, 4 nM PI3Kδ. […] 25 mM EDTA, 400 μM ATP. The final concentration of SPA beads was 1.0 mg/mL. After the plate sealing, plates were shaken overnight at room temperature and centrifuged at 1800 rpm for 10 minutes, the radioactivity of the product was determined by scintillation counting on Topcount (PerkinElmer). IC50 determination was performed by fitting the curve of percent control activity versus the log of the inhibitor concentration using the GraphPad Prism 3.0 software.
# Chain of PI3Kδ (p110δ/p85α) (O00329 whole entry): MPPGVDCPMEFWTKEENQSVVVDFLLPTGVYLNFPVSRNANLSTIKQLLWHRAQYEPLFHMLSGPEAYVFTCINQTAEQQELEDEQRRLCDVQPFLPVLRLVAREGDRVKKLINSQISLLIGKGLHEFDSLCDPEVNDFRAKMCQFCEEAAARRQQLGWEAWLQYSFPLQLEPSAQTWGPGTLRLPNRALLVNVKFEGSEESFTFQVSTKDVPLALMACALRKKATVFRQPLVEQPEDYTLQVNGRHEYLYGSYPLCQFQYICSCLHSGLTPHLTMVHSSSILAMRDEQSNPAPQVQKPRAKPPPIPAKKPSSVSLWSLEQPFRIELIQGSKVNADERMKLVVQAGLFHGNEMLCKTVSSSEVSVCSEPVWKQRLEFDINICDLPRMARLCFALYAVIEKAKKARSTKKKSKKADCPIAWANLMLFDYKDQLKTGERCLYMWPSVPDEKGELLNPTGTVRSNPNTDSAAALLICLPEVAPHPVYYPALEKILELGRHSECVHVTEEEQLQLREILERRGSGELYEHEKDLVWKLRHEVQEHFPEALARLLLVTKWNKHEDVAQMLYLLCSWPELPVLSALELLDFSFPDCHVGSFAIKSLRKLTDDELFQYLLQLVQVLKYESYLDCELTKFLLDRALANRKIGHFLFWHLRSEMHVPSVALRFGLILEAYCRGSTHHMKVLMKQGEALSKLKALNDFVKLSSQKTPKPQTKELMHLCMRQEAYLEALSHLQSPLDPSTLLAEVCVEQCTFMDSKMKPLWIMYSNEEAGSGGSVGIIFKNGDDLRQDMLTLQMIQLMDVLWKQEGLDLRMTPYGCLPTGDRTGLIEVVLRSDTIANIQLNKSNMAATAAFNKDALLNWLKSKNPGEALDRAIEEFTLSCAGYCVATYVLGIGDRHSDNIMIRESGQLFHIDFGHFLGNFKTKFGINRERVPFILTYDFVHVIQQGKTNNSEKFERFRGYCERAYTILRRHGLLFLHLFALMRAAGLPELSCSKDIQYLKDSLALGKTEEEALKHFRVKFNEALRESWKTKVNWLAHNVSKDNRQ
# Chain of PI3Kδ (p110δ/p85α) (P27986 whole entry partner): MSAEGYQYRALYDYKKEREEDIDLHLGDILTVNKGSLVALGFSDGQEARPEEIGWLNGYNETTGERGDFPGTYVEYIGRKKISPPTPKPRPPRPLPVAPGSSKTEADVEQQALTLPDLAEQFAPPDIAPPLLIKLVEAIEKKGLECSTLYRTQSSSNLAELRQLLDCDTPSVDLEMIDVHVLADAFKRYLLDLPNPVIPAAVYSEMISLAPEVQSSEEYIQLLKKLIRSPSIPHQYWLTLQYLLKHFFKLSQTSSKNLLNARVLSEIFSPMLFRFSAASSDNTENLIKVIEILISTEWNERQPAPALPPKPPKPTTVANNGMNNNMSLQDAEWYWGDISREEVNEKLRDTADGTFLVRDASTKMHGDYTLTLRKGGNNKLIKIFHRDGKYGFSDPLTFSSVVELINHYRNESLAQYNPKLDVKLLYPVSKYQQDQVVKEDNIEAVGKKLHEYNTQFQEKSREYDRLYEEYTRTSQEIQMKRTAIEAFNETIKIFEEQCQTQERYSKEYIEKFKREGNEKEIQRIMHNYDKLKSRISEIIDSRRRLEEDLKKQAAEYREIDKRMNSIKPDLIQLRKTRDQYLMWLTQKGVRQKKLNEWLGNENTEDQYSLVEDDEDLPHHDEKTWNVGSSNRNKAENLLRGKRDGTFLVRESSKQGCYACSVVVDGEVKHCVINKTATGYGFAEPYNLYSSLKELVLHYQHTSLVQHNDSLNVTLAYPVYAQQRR
row,SMILES,IC50 [nM]
1,"COc1c(C(C)n2nc(C)c3c(N)ncnc32)cc(Cl)c(C)c1-c1ccc(C(=O)N(C)C)c(F)c1 (single isomer, unassigned) [Example 21, 3′-[1-(4-Amino-3-methyl-1H-pyrazolo[3,4-d]pyrimidin-1-yl)ethyl]-5′-chloro-3-fluoro-2′-methoxy-N,N,6′-trimethylbiphenyl-4-carboxamide trifluoroacetate]",< 10
2,"COc1c(C(C)n2nc(C)c3c(N)ncnc32)cc(Cl)c(C)c1-c1cncc(C(=O)N(C)C)c1 (single isomer, unassigned) [Example 65, 5-{3-[1-(4-amino-3-methyl-1H-pyrazolo[3,4-d]pyrimidin-1-yl)ethyl]-5-chloro-2-methoxy-6-methylphenyl}-N,N-dimethylnicotinamide]",< 10
3,"COc1c(C(C)n2nc(C)c3c(N)ncnc32)cc(Cl)c(C)c1C1CN(CC#N)C1 (single isomer, unassigned) [Example 105, (3-{3-[1-(4-Amino-3-methyl-1H-pyrazolo[3,4-d]pyrimidin-1-yl)ethyl]-5-chloro-2-methoxy-6-methylphenyl}azetidin-1-yl)acetonitrile]",< 10
4,"COc1c(C(C)n2nc(C)c3c(N)ncnc32)cc(Cl)c(C)c1C1CN(CC(F)(F)F)C1 (single isomer, unassigned) [Example 108, 1-(1-{5-Chloro-2-methoxy-4-methyl-3-[1-(2,2,2-trifluoroethyl)azetidin-3-yl]phenyl}ethyl)-3-methyl-1H-pyrazolo[3,4-d]pyrimidin-4-amine]",< 10
5,"COc1c(C(C)n2nc(C)c3c(N)ncnc32)cc(Cl)c(C)c1C1CN(C[C@@H](O)C(F)(F)F)C1 (single isomer, unassigned) [Example 115]",< 10
6,"COc1c(C(C)n2nc(C)c3c(N)ncnc32)cc(Cl)c(C)c1C1CN(C(=O)[C@H](C)O)C1 (single isomer, unassigned) [Example 118]",< 10
7,"COc1c(C(C)n2nc(C)c3c(N)ncnc32)cc(Cl)c(C)c1C1CN(C(=O)[C@@H](C)O)C1 (single isomer, unassigned) [Example 121, trifluoroacetate]",< 10
8,"COc1c(C(C)n2nc(C)c3c(N)ncnc32)cc(Cl)c(C)c1-c1cnc(N)nc1 (single isomer, unassigned) [Example 169, 1-(1-(3-(2-aminopyrimidin-5-yl)-5-chloro-2-methoxy-4-methylphenyl)ethyl)-3-methyl-1H-pyrazolo[3,4-d]pyrimidin-4-amine]",< 10
9,"COc1c(C(C)n2nc(C)c3c(N)ncnc32)cc(Cl)c(C)c1-c1cnn(CCN(C)C)c1 (single isomer, unassigned) [Example 183, 1-[1-(5-Chloro-3-{1-[2-(dimethylamino)ethyl]-1H-pyrazol-4-yl}-2-methoxy-4-methylphenyl)ethyl]-3-methyl-1H-pyrazolo[3,4-d]pyrimidin-4-amine]",< 10
10,"COc1c(C(C)n2nc(C)c3c(N)ncnc32)cc(Cl)c(C)c1-c1ccc(NCCO)nc1 (single isomer, unassigned) [Example 184, 2-[(5-{3-[1-(4-Amino-3-methyl-1H-pyrazolo[3,4-d]pyrimidin-1-yl)ethyl]-5-chloro-2-methoxy-6-methylphenyl}pyridin-2-yl)amino]ethanol]",< 10
11,"Cc1c(Cl)cc(C(C)n2nc(C)c3c(N)ncnc32)c(OCC(F)F)c1-c1ccc(C(=O)N(C)C)nc1 (single isomer, unassigned) [Example 189, 5-(3-(1-(4-Amino-3-methyl-1H-pyrazolo[3,4-d]pyrimidin-1-yl)ethyl)-5-chloro-2-(2,2-difluoroethoxy)-6-methylphenyl)-N,N-dimethylpicolinamide bis(2,2,2-trifluoroacetate)]",< 10
12,"CCOc1c(C(C)n2nc(C)c3c(N)ncnc32)cc(Cl)c(C)c1-c1cnn(CC(N)=O)c1 (single isomer, unassigned) [Example 203, 2-(4-(3-(1-(4-Amino-3-methyl-1H-pyrazolo[3,4-d]pyrimidin-1-yl)ethyl)-5-chloro-2-ethoxy-6-methylphenyl)-1H-pyrazol-1-yl)acetamide]",< 10
13,"CCOc1c(C(C)n2nc(C)c3c(N)ncnc32)cc(Cl)c(C#N)c1C1CNC1 (single isomer, unassigned) [Example 212, 4-[1-(4-Amino-3-methyl-1H-pyrazolo[3,4-d]pyrimidin-1-yl)ethyl]-2-azetidin-3-yl-6-chloro-3-ethoxybenzonitrile]",< 10
14,"CCOc1c(C(C)n2nc(C)c3c(N)ncnc32)cc(Cl)c(C#N)c1C1CN(C)C1 (single isomer, unassigned) [Example 213, 4-[1-(4-Amino-3-methyl-1H-pyrazolo[3,4-d]pyrimidin-1-yl)ethyl]-6-chloro-3-ethoxy-2-(1-methylazetidin-3-yl)benzonitrile]",< 10
15,"CCOc1c(C(C)n2nc(C)c3c(N)ncnc32)cc(Cl)c(C#N)c1C1CN(CCO)C1 (single isomer, unassigned) [Example 219, 4-[1-(4-Amino-3-methyl-1H-pyrazolo[3,4-d]pyrimidin-1-yl)ethyl]-6-chloro-3-ethoxy-2-[1-(2-hydroxyethyl)azetidin-3-yl]benzonitrile]",< 10
16,"CCOc1c(C(C)n2nc(C)c3c(N)ncnc32)cc(Cl)c(C#N)c1C1CN(C(C)(C)C(=O)OC(C)(C)C)C1 (single isomer, unassigned) [Example 236, tert-Butyl 2-(3-{3-[1-(4-amino-3-methyl-1H-pyrazolo[3,4-d]pyrimidin-1-yl)ethyl]-5-chloro-6-cyano-2-ethoxyphenyl}azetidin-1-yl)-2-methylpropanoate]",< 10
17,"CCOc1c(C(C)n2nc(C)c3c(N)ncnc32)cc(Cl)c(C#N)c1C1CN(C(C)(C)CO)C1 (single isomer, unassigned) [Example 237, 4-[1-(4-Amino-3-methyl-1H-pyrazolo[3,4-d]pyrimidin-1-yl)ethyl]-6-chloro-3-ethoxy-2-[1-(2-hydroxy-1,1-dimethylethyl)azetidin-3-yl]benzonitrile]",< 10

# Now from value to compound:
row,IC50 [nM],SMILES
1,< 10,"CNC(=O)c1ccc(-c2c(C)c(Cl)cc(C(C)n3nc(C)c4c(N)ncnc43)c2OC)cc1F (single isomer, unassigned) [Example 22, 3′-[1-(4-Amino-3-methyl-1H-pyrazolo[3,4-d]pyrimidin-1-yl)ethyl]-5′-chloro-3-fluoro-2′-methoxy-N,6′-dimethylbiphenyl-4-carboxamide trifluoroacetate]"
2,< 10,"CCOc1c(C(C)n2nc(C)c3c(N)ncnc32)cc(Cl)c(C)c1C1CN(C(C)C)C1 (single isomer, unassigned) [Example 94, 1-{1-[5-Chloro-2-ethoxy-3-(1-isopropylazetidin-3-yl)-4-methylphenyl]ethyl}-3-methyl-1H-pyrazolo[3,4-d]pyrimidin-4-amine bis(trifluoroacetate)]"
3,< 10,"COc1c(C(C)n2nc(C)c3c(N)ncnc32)cc(Cl)c(C)c1C1CN(CCO)C1 (single isomer, unassigned) [Example 104, 2-(3-{3-[1-(4-Amino-3-methyl-1H-pyrazolo[3,4-d]pyrimidin-1-yl)ethyl]-5-chloro-2-methoxy-6-methylphenyl}azetidin-1-yl)ethanol]"
4,< 10,"COc1c(C(C)n2nc(C)c3c(N)ncnc32)cc(Cl)c(C)c1C1CN(CC(C)(C)O)C1 (single isomer, unassigned) [Example 158, 1-(3-{3-[1-(4-Amino-3-methyl-1H-pyrazolo[3,4-d]pyrimidin-1-yl)ethyl]-5-chloro-2-methoxy-6-methylphenyl}azetidin-1-yl)-2-methylpropan-2-ol]"
5,< 10,"COc1c(C(C)n2nc(C)c3c(N)ncnc32)cc(Cl)c(C)c1C1CN(C2(CC#N)CCC2)C1 (single isomer, unassigned) [Example 161, [1-(3-{3-[1-(4-Amino-3-methyl-1H-pyrazolo[3,4-d]pyrimidin-1-yl)ethyl]-5-chloro-2-methoxy-6-methylphenyl}azetidin-1-yl)cyclobutyl]acetonitrile]"
6,< 10,"COc1c(C(C)n2nc(C)c3c(N)ncnc32)cc(Cl)c(C)c1-c1ccc(OCCO)nc1 (single isomer, unassigned) [Example 188, 2-(5-(3-(1-(4-Amino-3-methyl-1H-pyrazolo[3,4-d]pyrimidin-1-yl)ethyl)-5-chloro-2-methoxy-6-methylphenyl)pyridin-2-yloxy)ethanol]"
7,< 10,"CCOc1c(C(C)n2nc(C)c3c(N)ncnc32)cc(Cl)c(C#N)c1C1CN(C(C)(C)C(N)=O)C1 (single isomer, unassigned) [Example 239, 2-{3-(3-[1-(4-Amino-3-methyl-1H-pyrazolo[3,4-d]pyrimidin-1-yl)ethyl]-5-chloro-6-cyano-2-ethoxyphenyl}azetidin-1-yl)-2-methylpropan amide]"
8,< 10,"CCOc1c(C(C)n2nc(C)c3c(N)ncnc32)cc(Cl)c(C#N)c1C1CN(C(=O)C(C)(C)O)C1 (single isomer, unassigned) [Example 247, 4-[1-(4-Amino-3-methyl-1H-pyrazolo[3,4-d]pyrimidin-1-yl)ethyl]-6-chloro-3-ethoxy-2-[1-(2-hydroxy-2-methylpropanoyl)azetidin-3-yl]benzonitrile]"
